Assay results: patent US4272437A, “Antibacterial agents, and 4-thio azetidinone intermediates” (priority 1979, dated 1981)
In brackets after ≈: the same amount, converted by molar mass. Read-outs that look alike come from different tables or passages of the source.

Assays:
[1] = test system: Str. pneumoniae A-9585; test: MIC, tube dilution, Streptococcus pneumoniae A9585; type: cell-based; conditions: overnight 37° C., Nutrient Broth; for MIC: Streptococcus pneumoniae, A9585, Str. pneumoniae A9585, read-out: Minimum Inhibitory Concentration (M.I.C.)
Source text: (§1) Representative compounds of the present invention were subjected to in vitro antibiotic screening against a variety of microorganisms.

[2] = test system: Str. pyogenes A-9604; test: MIC, tube dilution, Streptococcus pyogenes A9604; type: cell-based; conditions: overnight 37° C., Nutrient Broth; for MIC: Streptococcus pyogenes, A9604, Str. pyogenes A9604, read-out: Minimum Inhibitory Concentration (M.I.C.)
Source text: as §1

[3] = test system: Staph. aureus A-9537; test: MIC, tube dilution, Staphylococcus aureus A9537; type: cell-based; conditions: overnight 37° C., Nutrient Broth; for MIC: Staphylococcus aureus, A9537, Staph. aureus A9537, read-out: Minimum Inhibitory Concentration (M.I.C.)
Source text: as §1

[4] = test system: Staph. aureus A-9537 and 50% serum; test: MIC, tube dilution, Staph. aureus A9537 + 50% serum; type: cell-based, Staphylococcus aureus; conditions: overnight 37° C.; for MIC: Staphylococcus aureus, read-out: Minimum Inhibitory Concentration (M.I.C.)
Source text: as §1

[5] = test system: Staph. aureus (Pen-Res) A-9606; test: MIC, tube dilution, Staphylococcus aureus A9606 (Pen-Res); type: cell-based; conditions: overnight 37° C.; for MIC: Staphylococcus aureus
Source text: as §1

[6] = test system: Staph. aureus (Meth-Res) A-15097; test: MIC, tube dilution, Staphylococcus aureus A15097 (Meth-Res); type: cell-based; conditions: overnight 37° C.; for MIC: Staphylococcus aureus
Source text: as §1

[7] = test system: Str. faecalis A-20688; test: MIC, tube dilution, Streptococcus faecalis A20688; type: cell-based; conditions: overnight 37° C.; for MIC: Enterococcus faecalis, A20688, Str. faecalis A20688, read-out: Minimum Inhibitory Concentration (M.I.C.)
Source text: as §1

[8] = test system: E. coli A-15119; test: MIC, tube dilution, Escherichia coli A15119; type: cell-based; conditions: overnight 37° C.; for MIC: Escherichia coli, A15119, E. coli A15119, read-out: Minimum Inhibitory Concentration (M.I.C.)
Source text: as §1

[9] = test system: E. coli A-20341-1; test: MIC, tube dilution, Escherichia coli A20341-1; type: cell-based; conditions: E. coli A20341-1, overnight 37° C.; for MIC: Escherichia coli, A203411, read-out: Minimum Inhibitory Concentration (M.I.C.)
Source text: as §1

[10] = test system: K. pneumoniae A-15130; test: MIC, tube dilution, Klebsiella pneumoniae A15130; type: cell-based; conditions: overnight 37° C.; for MIC: Klebsiella pneumoniae, A15130, K. pneumoniae A15130, read-out: Minimum Inhibitory Concentration (M.I.C.)
Source text: as §1

[11] = test system: Klebsiella species A20468; test: MIC, tube dilution, Klebsiella species A20468; type: cell-based; conditions: Klebsiella species (K. pneumoniae) A20468, overnight 37° C.; for MIC: read-out: Minimum Inhibitory Concentration (M.I.C.)
Source text: as §1

[12] = test system: Pr. mirabilis A-9900; test: MIC, tube dilution, Proteus mirabilis A9900; type: cell-based; conditions: overnight 37° C.; for MIC: Proteus mirabilis, A9900, Proteus mirabilis A9900, read-out: Minimum Inhibitory Concentration (M.I.C.)
Source text: as §1

[13] = test system: Pr. vulgaris A-9716; test: MIC, tube dilution, Proteus vulgaris / Proteus mirabilis A9716; type: cell-based, Proteus vulgaris (name changed to Proteus mirabilis); conditions: overnight 37° C.; for MIC: Proteus vulgaris
Source text: as §1

[14] = test system: Pr. morganii A-15153; test: MIC, tube dilution, Proteus morganii A15153; type: cell-based; conditions: overnight 37° C.; for MIC: Morganella morganii, A15153, Proteus morganii A15153, read-out: Minimum Inhibitory Concentration (M.I.C.)
Source text: as §1

[15] = test system: Providencia stuartii A21205; test: MIC, tube dilution, Providencia stuartii (Pr. rettgeri) A21205; type: cell-based; conditions: for MIC: Providencia stuartii
Source text: as §1

[16] = test system: Ser. marcescens A-20019; test: MIC, tube dilution, Serratia marcescens A20019; type: cell-based; conditions: overnight 37° C.; for MIC: Serratia marcescens, A20019, Serratia marcescens A20019, read-out: Minimum Inhibitory Concentration (M.I.C.)
Source text: as §1

[17] = test system: Ent. cloacae A-9659; test: MIC, tube dilution, Enterobacter cloacae A9659; type: cell-based; conditions: overnight 37° C.; for MIC: Enterobacter cloacae, A9659, Enterobacter cloacae A9659, read-out: Minimum Inhibitory Concentration (M.I.C.)
Source text: as §1

[18] = test system: Ent. cloacae A-9656; test: MIC, tube dilution, Enterobacter cloacae A9656; type: cell-based; conditions: Enterobacter cloacae A9656, overnight 37° C.; for MIC: read-out: Minimum Inhibitory Concentration (M.I.C.)
Source text: as §1

[19] = test system: Ps. aeruginosa A-9843A; test: MIC, tube dilution, Pseudomonas aeruginosa A9843A; type: cell-based; conditions: overnight 37° C.; for MIC: Pseudomonas aeruginosa, A9843A, read-out: Minimum Inhibitory Concentration (M.I.C.), Pseudomonas aeruginosa A9843A
Source text: as §1

[20] = test system: Ps. aeruginosa A-21213; test: MIC, tube dilution, Pseudomonas aeruginosa A21213; type: cell-based; conditions: Pseudomonas aeruginosa A21213, overnight 37° C.; for MIC: read-out: Minimum Inhibitory Concentration (M.I.C.)
Source text: as §1

[21] = Staph. aureus A9606 (Pen-Res), read-out: Minimum Inhibitory Concentration (M.I.C.)
[22] = A9716, Proteus vulgaris / Proteus mirabilis A9716, read-out: Minimum Inhibitory Concentration (M.I.C.)
[23] = A21205, Providencia stuartii (Pr. rettgeri) A21205, overnight 37° C., read-out: Minimum Inhibitory Concentration (M.I.C.)
[24] = Staph. aureus A15097 (Meth-Res)

Row | Molecule | MIC [1] | MIC [2] | MIC [3] | MIC [4] | MIC [5, 21] | MIC [7] | MIC [8] | MIC [9] | MIC [10] | MIC [11] | MIC [12] | MIC [13, 22] | MIC [14] | MIC [15, 23] | MIC [16] | MIC [17] | MIC [18] | MIC [19] | MIC [20] | Minimum Inhibitory Concentration (M.I.C.) [6, 24] | other results
1 | O=C(O)C1=C(COc2ccccc2)S[C@@H]2CC(=O)N12 [Preparation 12, 2-Phenoxymethylpenem-3-carboxylic Acid] | 0.5 µg/mL (≈ 1.8 µM) | 0.5 µg/mL (≈ 1.8 µM) | 1 µg/mL (≈ 3.61 µM) | > 63 µg/mL | 0.5 µg/mL (≈ 1.8 µM) | 63 µg/mL (≈ 227 µM) | 63 µg/mL (≈ 227 µM) | > 125 µg/mL | > 125 µg/mL | > 125 µg/mL | 16 µg/mL (≈ 57.7 µM) | 16 µg/mL (≈ 57.7 µM) | 16 µg/mL (≈ 57.7 µM) | 63 µg/mL (≈ 227 µM) | > 125 µg/mL | > 125 µg/mL | > 125 µg/mL | > 125 µg/mL | > 125 µg/mL | – | MIC ([6]; Staph. aureus A15097 (Meth-Res), read-out: Minimum Inhibitory Concentration (M.I.C.)): 1 µg/mL (≈ 3.61 µM)
2 | CCC1C(=O)N2C(C(=O)[O-])=C(C)S[C@H]12.[Na+] (stereo partly drawn) [1 (cis), Sodium 6-Ethyl-2-methylpenem-3-carboxylate] | 4 µg/mL | 4 µg/mL | 8 µg/mL | > 63 µg/mL | – | 63 µg/mL | 125 µg/mL | 125 µg/mL | > 125 µg/mL | > 125 µg/mL | 125 µg/mL | – | > 125 µg/mL | – | > 125 µg/mL | > 125 µg/mL | > 125 µg/mL | > 125 µg/mL | > 125 µg/mL | 63 µg/mL | MIC ([5]; read-out: Minimum Inhibitory Concentration (M.I.C.), Staph. aureus A9606 (Pen-Res)): 16 µg/mL; MIC ([13]; A9716, read-out: Minimum Inhibitory Concentration (M.I.C.), Proteus vulgaris / Proteus mirabilis A9716): 63 µg/mL; MIC ([15]; A21205, read-out: Minimum Inhibitory Concentration (M.I.C.)): 63 µg/mL
3 | 6-Acetoxymethyl-2-methylpenem-3-carboxylic Acid [Example 2] | – | – | – | – | – | – | – | – | – | – | – | – | – | – | – | – | – | – | – | 8 µg/mL | Minimum Inhibitory Concentration (M.I.C.) ([1]; Str. pneumoniae A9585): 1 µg/mL; Minimum Inhibitory Concentration (M.I.C.) ([2]; Str. pyogenes A9604): 2 µg/mL; Minimum Inhibitory Concentration (M.I.C.) ([3]; Staph. aureus A9537): 8 µg/mL; Minimum Inhibitory Concentration (M.I.C.) [4]: > 63 µg/mL; Minimum Inhibitory Concentration (M.I.C.) ([5]; Staph. aureus A9606 (Pen-Res)): 4 µg/mL; Minimum Inhibitory Concentration (M.I.C.) ([7]; Str. faecalis A20688): 63 µg/mL; Minimum Inhibitory Concentration (M.I.C.) ([8]; E. coli A15119): 32 µg/mL; Minimum Inhibitory Concentration (M.I.C.) [9]: 32 µg/mL; Minimum Inhibitory Concentration (M.I.C.) ([10]; K. pneumoniae A15130): 63 µg/mL; Minimum Inhibitory Concentration (M.I.C.) [11]: > 125 µg/mL; Minimum Inhibitory Concentration (M.I.C.) ([12]; Proteus mirabilis A9900): 63 µg/mL; Minimum Inhibitory Concentration (M.I.C.) ([13]; Proteus vulgaris / Proteus mirabilis A9716): 63 µg/mL; Minimum Inhibitory Concentration (M.I.C.) ([14]; Proteus morganii A15153): 63 µg/mL; Minimum Inhibitory Concentration (M.I.C.) ([15]; Providencia stuartii (Pr. rettgeri) A21205, overnight 37° C.): 32 µg/mL; Minimum Inhibitory Concentration (M.I.C.) ([16]; Serratia marcescens A20019): 125 µg/mL; Minimum Inhibitory Concentration (M.I.C.) ([17]; Enterobacter cloacae A9659): 125 µg/mL; Minimum Inhibitory Concentration (M.I.C.) [18]: > 125 µg/mL; Minimum Inhibitory Concentration (M.I.C.) ([19]; Pseudomonas aeruginosa A9843A): > 125 µg/mL; Minimum Inhibitory Concentration (M.I.C.) [20]: > 125 µg/mL
4 | O=C(O)C1=C(CCCCN2C(=O)c3ccccc3C2=O)SC2CC(=O)N12 (centres unmarked) [Example 43, 2-(4'-Phthalimido-1'-butyl)penem-3-carboxylic Acid] | 0.016 µg/mL (≈ 0.043 µM) | 0.25 µg/mL (≈ 0.671 µM) | 0.03 µg/mL (≈ 0.0806 µM) | 63 µg/mL | 16 µg/mL (≈ 43 µM) | 16 µg/mL (≈ 43 µM) | 63 µg/mL (≈ 169 µM) | > 125 µg/mL | > 125 µg/mL | > 125 µg/mL | 32 µg/mL (≈ 85.9 µM) | 16 µg/mL (≈ 43 µM) | 32 µg/mL (≈ 85.9 µM) | 63 µg/mL (≈ 169 µM) | 16 µg/mL (≈ 43 µM) | > 125 µg/mL | 125 µg/mL (≈ 336 µM) | > 125 µg/mL | > 125 µg/mL | – | MIC ([6]; read-out: Minimum Inhibitory Concentration (M.I.C.), Staph. aureus A15097 (Meth-Res)): > 125 µg/mL
